Laboratory results as given in patent publication US9364449B2, “Peptoid and synthetic oligomers, pharmaceutical compositions and methods of using same” (New York University, priority 2011, dated 2016).
“Also recorded” adds a separate entry of the source. Non-standard residues stand in square brackets, D forms with d. Residues, ends and D or L forms follow the SMILES beside them. No end group written: not given here. Sar = CNCC(=O)O

How the values were obtained:
Aβ1-40 [1] = molecular target: T1, Aβ1-40 (Homo sapiens, UniProt P05067); assay: Oligomerization assay (glutaraldehyde cross-linking, Western blot, densitometry); type: biochemical; details: 100 μM Aβ1-40 with 10 μM compound (10:1 Aβ:inhibitor), 4° C., 24 h
T1 construct: made in house; host or cells: chemical solid-phase peptide synthesis (L-amino acids), RP-HPLC purified
T1 sequence (P05067 672-711): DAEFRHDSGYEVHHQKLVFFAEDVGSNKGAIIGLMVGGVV
Method: Autoradiography films were converted into 8 bit grayscale digital files using a Epson Perfection 4990 scanner (Epson America; Long Beach, Calif.) and Adobe Photoshop CS4 (Adobe Systems; San Jose, Calif.) and saved in a TIF format with a resolution of 600 dpi. Densitometric analysis of Western and dot-blot signals was performed using NIH Image J software v 1.42 (Bethesda, Md.) as previously described (Pankiewicz et al., 2006. Eur. J. Neurosci. 23, 2635-47; Sadowski et al., 2009. Neurobiol Dis; 34, 267-78).
The rationale is that Aβ oligomeric assemblies are particularly toxic to synaptic components and impair neurotransmission. […] GKLVFNmgA (SEQ ID NO: 310:1 Aβ:inhibitor ratio). Prior to electrophoresis, glutaraldehyde (0.4 mM final concentration) was added to prevent disassembly of complexes. Samples were immediately subjected to electrophoresis in non-reducing condition, Western-transfer, and detection with a mixture of 4G8 and 6E10 anti-Aβ Mabs.

[2] = test system: primary hippocampal neurons; assay: Intraneuronal Aβ accumulation (Western blot of neuronal lysates, densitometry); type: cell-based, C57bL/6 mice; details: 10 μM Aβ40 with or without compound, p<0.01
Method: P0-P1 pups of C57bL/6 mice were killed by decapitation and brains were removed in aseptic conditions. To establish cultures of primary hippocampal neurons the hippocampi were dissected from both hemispheres under AmScope stereoscopic microscope (AmScope, Chino, Calif.). Fragments of tissue were placed in the ice-cold Ca^2+ and Mg^2+ free Hank's balanced salt solution (HBSS) and gently cut further into fine pieces which were then treated with 0.05% trypsin in HBSS for 10 min at 37° C. to obtain cell suspension. Following addition of 0.1% type-I-S trypsin inhibitor and 0.05% DNase I, the cell suspension was centrifuged at 500×g for 30 sec. The resulting pellet was triturated, centrifuged again at 500×g for 5 min and resuspended in the minimal essential medium (MEM) supplemented with heat-inactivated 10% fetal bovine serum (FBS), 0.5 mM glutamine, streptomycin (50 μg/ml) and penicillin (50 U/ml). The cell suspension was then filtered through a 70-μm mesh, and the cells were counted using hematocytometer (Hausser Scientific, Horsham, Pa.). The cells were seeded on poly-L-lysine coated 12-well plates. For biochemical analysis 5×10^5 cells were seeded directly on the bottom of each well whereas for immunohistochemistry a removable, poly-L-lysine coated round coverslip was placed on the bottom of the well and the number of seeded cells was reduced to 1×10^5 per well. […]

[3] = test system: eAβ1-x in brain interstitial fluid (ISF); assay: In vivo microdialysis of brain interstitial fluid eAβ in AD transgenic mice; set-up: species or system APPSW/PS1L166P AD transgenic mice; details: 100 μM compound by reverse microdialysis into hippocampal CA1
Method: Mice were anesthetized with an intraperitoneal injection of Ketamine (50 mg/kg) and Xylazine (10 mg/kg). An MBR-10 guide cannula was stereotactically implanted into the right hippocampus (bregma −3.1 mm, 2.4 mm lateral, 12° angle). Four hours later mice were anesthetized again for the insertion of a BR-4 microdialysis probe with 38 kDa molecular weight cutoff (MWCO) membrane (Cirrito et al., 2008. 2008. Neuron; 58, 42-51) which was introduced through the implanted guide cannula. The probe was positioned so that the microdialysis membrane was almost entirely embedded in the strata radiatum and lacunosum-moleculare of the CA1 hippocampal sector (FIG. 8A). […]
eAβ level in the ISF dialyzate was determined using sandwich ELISA specific for human Aβ1-x. […] Absorbance was read on the Epoch Microplate Spectrophotometer (BioTek Instruments, Inc. Winooski, Vt.). Following background subtraction, absorbance values from serially diluted synthetic Aβ samples were used to generate a standard curve in GraphPad Prism v5.02 (GraphPad Software, Inc., San Diego) using a non-linear curve-fitting algorithm. eAβ concentration in dialysate samples was determined by comparing their absorbance values against the standard curve. […]

[4] = test system: primary hippocampal neurons; assay: Immunocytochemistry and quantification of synaptic protein expression in neurons exposed to Aβ40; type: cell-based, C57bL/6 mice
Method: P0-P1 pups of C57bL/6 mice were killed by decapitation and brains were removed in aseptic conditions. To establish cultures of primary hippocampal neurons the hippocampi were dissected from both hemispheres under AmScope stereoscopic microscope (AmScope, Chino, Calif.). Fragments of tissue were placed in the ice-cold Ca^2+ and Mg^2+ free Hank's balanced salt solution (HBSS) and gently cut further into fine pieces which were then treated with 0.05% trypsin in HBSS for 10 min at 37° C. to obtain cell suspension. Following addition of 0.1% type-I-S trypsin inhibitor and 0.05% DNase I, the cell suspension was centrifuged at 500×g for 30 sec. The resulting pellet was triturated, centrifuged again at 500×g for 5 min and resuspended in the minimal essential medium (MEM) supplemented with heat-inactivated 10% fetal bovine serum (FBS), 0.5 mM glutamine, streptomycin (50 μg/ml) and penicillin (50 U/ml). The cell suspension was then filtered through a 70-μm mesh, and the cells were counted using hematocytometer (Hausser Scientific, Horsham, Pa.). The cells were seeded on poly-L-lysine coated 12-well plates. For biochemical analysis 5×10^5 cells were seeded directly on the bottom of each well whereas for immunohistochemistry a removable, poly-L-lysine coated round coverslip was placed on the bottom of the well and the number of seeded cells was reduced to 1×10^5 per well. The neurons were allowed to adhere to the surface for four hours and then the medium was replaced with the serum-free Neurobasal medium containing 2% B27 supplement, 0.5 mM glutamine, streptomycin (50 μg/ml) and penicillin (50 U/ml). At three days in vitro (DIV) 5 μM of cytosine-β-D-arabinoside (Ara C) was added for 48 hr to inhibit division of non-neuronal cells. At 7 DIV one well from each preparation of primary hippocampal neurons was randomly selected to determine the purity of the culture. This was done by calculating the ratio of cells immunostained against microtubule-associated protein 2 (MAP2), which is a neuronal specific marker against all cells stained with 4′,6-diamidino-2-phenylindole (DAPI) nucleic acid stain.
Monomerized Aβ40 peptides were diluted in cell culture media and added to neuronal monocultures for 24 or 72 hr.

[5] = test system: primary hippocampal neurons; assay: Accumulation of aggregated FITC labeled Aβ1-40 on the surface of neurons; type: cell-based, C57bL/6 mice; details: 18 DIV neurons, FITC labeled Aβ1-40, treated with compound
Method: P0-P1 pups of C57bL/6 mice were killed by decapitation and brains were removed in aseptic conditions. To establish cultures of primary hippocampal neurons the hippocampi were dissected from both hemispheres under AmScope stereoscopic microscope (AmScope, Chino, Calif.). Fragments of tissue were placed in the ice-cold Ca^2+ and Mg^2+ free Hank's balanced salt solution (HBSS) and gently cut further into fine pieces which were then treated with 0.05% trypsin in HBSS for 10 min at 37° C. to obtain cell suspension. Following addition of 0.1% type-I-S trypsin inhibitor and 0.05% DNase I, the cell suspension was centrifuged at 500×g for 30 sec. […] The cell suspension was then filtered through a 70-μm mesh, and the cells were counted using hematocytometer (Hausser Scientific, Horsham, Pa.). […]
Coverslip inserts covered by the primary hippocampal neuro^ns were immersed three times in PBS at 37° C., and then in 80% ice-cold methanol for 10 min to fix the neurons, and washed again three times in PBS. […] Biotinylated secondary antibodies (1:1,000) followed by Cy3 conjugated streptavidine (1:500) were used to detected binding of primary Abs to their antigens. […] Immunostained neurons were analyzed under 80i Nikon fluorescent microscope (Nikon Corp. Tokyo, Japan). […]

[6] = In vivo pharmacokinetic studies in rats
Aβ1-40 [7] = molecular target: T1, Aβ1-40; assay: Thioflavine-T aggregation assay, Aβ1-40 aggregated in the presence of compound; type: biochemical
Method: (§1) Peptoid modified derivatives of the KLVFFA (SEQ ID NO: 4) sequence were tested using Thioflavine-T aggregation assay to determine whether or not they are capable of forming fibrils themselves. […] In these treatment experiments, 100 μM Aβ40 or Aβ42 was mixed with 1-100 μM of the investigated compound and incubated up to 14 days. […] They were incubated alone or in the presence of peptoid modified derivatives of KLVFFA (SEQ ID NO: 4) sequence at concentrations of 1-100 μM. In addition, peptoid modified derivatives of KLVFFA (SEQ ID NO: 4) sequence were incubated alone as indicated above at the concentration of 100 μM. At the indicated intervals, samples containing 15 μg of incubated peptides were added to 1 mL of 50 mM/L glycine, pH 9.2 and 2 μM/L of Thioflavin-T (Sigma Chemical, Co.; St. Louis, Mo.). Fluorescence was measured at excitation 435 nm and emission 485 nm in a Hitachi F-2000 fluorescence spectrophotometer. A time scan of fluorescence was performed and three values after the decay reached a plateau (280, 290, 300 seconds) were averaged. The background fluorescence of 40 μl of Tris buffer added to 2 μM/L of Thioflavin-T solution was subtracted. Samples were run in duplicate. Differences in amount of fibrils formed by different peptides at particular time points were evaluated by one-way ANOVA followed by Tukey post hoc test.

[8] = Thioflavine-T aggregation assay, compound incubated alone (own fibril formation); type: physicochemical; details: compound alone at 100 μM
Method: as §1

[9] = test system: SK-N-SH human neuroblastoma cells; assay: MTT toxicity assay; details: four day MTT cytotoxicity assay
Method: SK-N-SH cells were plated at 10,000 cells/100 μl per well in flat-bottom, 96-well microtiter plates and incubated with 1-100 μmol/L concentrations of tested peptides for two days after which cell viability was assessed using a metabolic assay, which is based on cleavage of the yellow tetrazolium salt (MTT) to purple formazan crystals by viable cells. The MTT assay (Roche Molecular Biochemicals, Indianapolis, Ind.) was performed according to the manufacturer's instructions.

[10] = 18 DIV neurons, 10 μM Aβ40 plus 5 μM compound, 72 hr

Molecule: CC(C)CC(NC(=O)C(CCCCN)NC(=O)CN)C(=O)NC(C(=O)NC(Cc1ccccc1)C(=O)N(C)CC(=O)NC(C)C(N)=O)C(C)C (stereo not drawn) [GKLVFNmgA] (H-GKLVF[Sar]A-NH2; configuration not given here)
- reduction of the amount of Aβ oligomers (densitometric analysis) (Aβ1-40 [1]): 61.3%
- less Aβ accumulated in neurons after six hr of exposure ([2]; 6 hr): 29.8%
- less Aβ accumulated in neurons after 24 hr of exposure ([2]; 24 hr): 49.3%
- hour after the infusion onset from which the increase in eAβ was observed [3]: seventh
- NR1 NMDA receptor subunit positive densities, % of the control [4, 10]: 83 % of the control
- PSD-95 positive densities, % of the control [4, 10]: 82.3 % of the control
- synaptophysin positive densities, % of the control [4, 10]: 84.5 % of the control
- effect of compound alone on the expression of NR1, synaptophysin and PSD-95 ([4]; neurons treated with compound alone, no Aβ): no significant effect
- accumulation of aggregated Aβ1-40 on the surface of neurons [5]: Reduction in the number of AB aggregates; also recorded: Reduced accumulation
- blood brain barrier (BBB) penetration [6]: good
- detection in the cerebrospinal fluid (CSF) ([6]; following intravenous administration): can be detected
- level in plasma after intranasal delivery ([6]; intranasal): High level
- level in plasma following oral delivery ([6]; oral): Lesser level
- half-life ([6]; rat, in vivo): < 2 h
- inhibitory effect on the aggregation of Aβ1-40 (Aβ1-40 [7]; 1 μM compound, 100 μM Aβ1-40 (1:100 compound:Aβ ratio), p<0.001): strong inhibitory effect
- dose dependent effect on aggregation of Aβ1-40 (Aβ1-40 [7]; 100 μM Aβ1-40, 1-100 μM compound): strong dose dependent effect
- fibril formation by the compound itself [8]: did not form fibrils itself; also recorded: does not form fibrils itself

Molecule: GKLVFFA-NH2 [GKLVFFA]
- concentration at which toxicity was exhibited in MTT assay [9]: 100 µM
